Measurements from patent publication US20170105999A1, “METHOD FOR TREATING DRUG RESISTANT CANCER” (NATIONAL YANG MING UNIVERSITY, priority 2014, published 2017).

Tests used:
CL141 spheres = assay: Cytotoxicity at sphere cells, Trypan Blue Exclusion method; type: cell-based; settings: read-out: IC50 for prochlorperazine metabolites
CL152 = assay: Cytotoxicity, sulforhodamine B (SRB) assay; type: cell-based; settings: read-out: IC50 for prochlorperazine metabolites, CL152 parental cells
Experimental: (§1) Cells were plated in 96-well plates at a density of 2000 cells per well in triplicate. The cells were treated on the third day (to ensure proper plating efficiency and vitality) to indicated agents for 48 hrs. […] Cytotoxicity was assessed using the sulforhodamine B (SRB) assay (23). Briefly, the medium was discarded, and the adherent cells were fixed by 100 μl of cold 10% trichioroacetic acid (w/v) in each well for 1 h at 4° C. After fixation, cells were stained with 100 μl/well of 0.4% (w/v, in 1% acetic acid) SRB solution for 30 min at room temperature, and then washed 5 times with 1% acetic acid. After air-drying, 100 μl of 10 mM Tris base was added to each well and the absorbance was read at 530 nm. Cytotoxicity is expressed as the percent of cells in drug treated wells relative to number of cells in the solvent only control (set to 100%). Each experiment was performed independently at least 2 times in triplicate and cytotoxicity is given as means ±SD.
(§2) A549, A549-ON, CL97, CL141, HCC827, and H441 were lung adenocarcinoma cell lines. CL152, H2170, and H226 were squamous cell carcinoma cell lines. Cell viability was determined by SRB assay. […] To determine whether side population (SP) cells, which represent a cell population with CSC characteristics, exist in NSCLC cell lines, we stained the cells with the fluorescent dye, Hoechst 33342, and analyzed the cells with flow cytometry.

CL141 [1] = assay: Cytotoxicity, sulforhodamine B (SRB) assay; type: cell-based; settings: read-out: IC50 for prochlorperazine metabolites, CL141 parental cells
Experimental: as §1, §2

CL152 spheres = assay: Cytotoxicity at sphere cells, Trypan Blue Exclusion method; type: cell-based; settings: read-out: IC50 for prochlorperazine metabolites
CL141 [2] = assay: Clonogenic assay; type: cell-based; settings: CL141; approximately 1,000 cells seeded, 14 days
From the text: […] […] After the treatments, cells were washed with PBS, and the colonies were fixed with fix solution (methanol: acetic acid=3:1) and stained with 0.5% crystal violet in methanol. After removing the crystal violet carefully and rinse with tap water, the colonies were counted manually.

[3] = test system: NCI-H441 cells expressing firefly luciferase; assay: NCI-H441 firefly luciferase tail vein tumor model, drug combination test; type: in vivo, mice; settings: cisplatin 1 mg/kg + pemetrexed 1 mg/kg
Experimental: In the first drug combination test, NCI-H441 cells expressing firefly luciferase (6×10^5 cells/injection) were injected into NOD/SCID mice (4-6 week of age) via the lateral tail vein for tumor establishment. […] Tumor burden from different groups were recorded by caliper. The change in tumor size was expressed as in fold change and plotted over time. Subsequently, we performed another set of drug combination test. […] For lung adenocarcinoma, the standard drug combination is pemetrexed and cisplatin whereas are used gemcitabine and cisplatin for lung squamous carcinoma. […] CL97 cancer cells (1.5×10^6 cells per injection) were injected subcutaneously into NOD/SCID mice to establish in viva tumor model.
In the drug combination test ([…]), NCI-H441 cells expressing firefly luciferase ([…] cells/injection) were injected into NOD/SCID mice (4-6 week of age) via the lateral tail vein for tumor establishment.

NSCLC cell lines = test system: NSCLC cell lines
Experimental: as §1, §2

A549 cells = assay: Senescence, β-galactosidase (SA-β-Gal) activity; type: cell-based; settings: A549, 24 hours; 1 μM prochlorperazine, 50 μM resveratrol as positive control
From the text: EMT also plays a critical role in the regulation of cancer sternness. EMT is characterized by enhanced cell migration and invasion.

Row | Structure (SMILES) | IC50 (CL141 spheres) | IC50 (CL152) | IC50 (CL141 [1]) | IC50 (CL152 spheres) | Clonogenic assay for prochlorperazine analogs (CL141 [2]) | also measured
1 | C[N+]1([O-])CCN(CCCN2c3ccccc3[S+]([O-])c3ccc(Cl)cc32)CC1 (stereo not shown) [Prochlorperazine sulfoxide 4′-N-oxide] | > 10 µM | > 20 µM | > 20 µM | > 10 µM |  | 
2 | CN(C)c1ccc(-c2c3ccccc3nc3ccc(Cl)cc23)cc1 [NSC 406619] |  |  |  |  | 2.5-5 μM | 
3 | N.N.[Cl][Pt][Cl] [cisplatin] |  |  |  |  |  | inhibitory effect on tumor growth, cisplatin in combination with pemetrexed vs pemetrexed alone [3]: not significantly different
4 | Clc1ccc2c(c1)N(CCCN1CCNCC1)c1ccccc1S2 [N-desmethyl prochlorperazine] | < 5 µM | ~10 µM | 5 to 10 µM | < 5 µM |  | cytotoxic effect in NSCLC cell lines compared with other metabolites (NSCLC cell lines): better cytotoxic effect than other tested metabolites
5 | CN1CCN(CCCN2c3ccccc3[S+]([O-])c3ccc(Cl)cc32)CC1 (stereo not shown) [Prochlorperazine sulfoxide] | 5 to 10 µM | > 20 µM | > 20 µM | > 10 µM |  | 
6 | CCc1ccc2c(c1)N(CCCN(CCCl)CCCl)c1ccccc1S2 [NSC 166184] |  |  |  |  | 1-2.5 μM | 
7 | Oc1ccc(C=Cc2cc(O)cc(O)c2)cc1 [resveratrol] |  |  |  |  |  | β-galactosidase activity (senescence) (A549 cells): increased β-galactosidase activity
8 | CC1(C)CCCN1CCCN1c2ccccc2Sc2ccc(Cl)cc21 [NSC 14948] |  |  |  |  | 5-10 μM | 
9 | CCN(CC)CCCN1c2ccccc2Sc2ccc(Cl)cc21 [NSC 169470] |  |  |  |  | 5-10 μM | 
